Test results taken from patent US20200187502A1, “MICROBIOCIDAL OXADIAZOLE DERIVATIVES” (SYNGENTA PARTICIPATIONS AG, priority 2017, published 2020).

Each compound was assayed on Puccinia recondita f. Sp. Tritici (assay: Fungicidal activity, wheat leaf disc preventative (brown rust)). Conditions: foliar, 200 ppm in the applied formulation, wheat leaf segments cv. Kanzler, compared to untreated control, 7 to 9 days after application, read-out: disease control.
Format: in vivo
Experimental: Leaf disks or leaf segments of various plant species are cut from plants grown in a greenhouse. The cut leaf disks or segments are placed in multiwell plates (24-well format) onto water agar. The leaf disks are sprayed with a test solution before (preventative) or after (curative) inoculation. Compounds to be tested are prepared as DMSO solutions (max. 10 mg/ml) which are diluted to the appropriate concentration with 0.025% Tween20 just before spraying. The inoculated leaf disks or segments are incubated under defined conditions (temperature, relative humidity, light, etc.) according to the respective test system. A single evaluation of disease level is carried out 3 to 14 days after inoculation, depending on the pathosystem. Percent disease control relative to the untreated check leaf disks or segments is then calculated.
Wheat leaf segments cv. Kanzler were placed on agar in multiwell plates (24-well format) and sprayed with the formulated test compound diluted in water. The leaf disks were inoculated with a spore suspension of the fungus 1 day after application. The inoculated leaf segments were incubated at 19° C. and 75% relative humidity (rh) under a light regime of 12 hours light/12 hours darkness in a climate cabinet and the activity of a compound was assessed as percent disease control compared to untreated when an appropriate level of disease damage appears in untreated check leaf segments (7 to 9 days after application).
The following compounds at 200 ppm in the applied formulation give at least 80% disease control in this test when compared to untreated control leaf disks under the same conditions, which show extensive disease development.
`COC(=O)N(Cc1ccc(-c2noc(C(F)(F)F)n2)s1)OC` [Compound 1.5, methyl N-methoxy-N-[[5-[5-(trifluoromethyl)-1,2,4-oxadiazol-3-yl]-2-thienyl]methyl]carbamate] showed a pest or weed control at 200 ppm of no less than 80%. For `CON(Cc1ccc(-c2noc(C(F)(F)F)n2)s1)C(=O)c1ccccc1Cl` [Compound 1.20, 2-chloro-N-methoxy-N-[[5-[5-(trifluoromethyl)-1,2,4-oxadiazol-3-yl]-2-thienyl]methyl]benzamide], the pest or weed control at 200 ppm was no less than 80%. For `CCCCS(=O)(=O)N(C)Cc1ccc(-c2noc(C(F)(F)F)n2)s1` [Compound 6.24, N-methyl-N-[[5-[5-(trifluoromethyl)-1,2,4-oxadiazol-3-yl]-2-thienyl]methyl]butane-1-sulfonamide], the pest or weed control at 200 ppm was no less than 80%. In the case of `CN(Cc1ccc(-c2noc(C(F)(F)F)n2)s1)S(=O)(=O)c1ccccc1` [Compound 6.26, N-methyl-N-[[5-[5-(trifluoromethyl)-1,2,4-oxadiazol-3-yl]-2-thienyl]methyl]benzenesulfonamide], the pest or weed control at 200 ppm is reported as no less than 80%. Work on `O=S(=O)(c1ccccc1)N(Cc1ccc(-c2noc(C(F)(F)F)n2)s1)C1CC1` [Compound 6.36, N-cyclopropyl-N-[[5-[5-(trifluoromethyl)-1,2,4-oxadiazol-3-yl]-2-thienyl]methyl]benzenesulfonamide] yielded a pest or weed control at 200 ppm of no less than 80%.

Each compound was assayed on Glomerella lacenarium (Colletotrichum lacenarium) (assay: Fungicidal activity, liquid culture, cucumber preventative (anthracnose)). Conditions: 20 ppm in the applied formulation, liquid culture in PDB, inhibition of growth measured photometrically 3 to 4 days after application, compared to untreated control, read-out: disease control.
Format: cell-based
Experimental: Mycelia fragments or conidia suspensions of a fungus prepared either freshly from liquid cultures of the fungus or from cryogenic storage, are directly mixed into nutrient broth. DMSO solutions of the test compound (max. 10 mg/ml) are diluted with 0.025% Tween20 by a factor of 50 and 10 μl of this solution is pipetted into a microtiter plate (96-well format). The nutrient broth containing the fungal spores/mycelia fragments is then added to give an end concentration of the tested compound. The test plates are incubated in the dark at 24° C. and 96% relative humidity. The inhibition of fungal growth is determined photometrically after 2 to 7 days, depending on the pathosystem, and percent antifungal activity relative to the untreated check is calculated.
Conidia of the fungus from cryogenic storage are directly mixed into nutrient broth (PDB—potato dextrose broth). After placing a (DMSO) solution of test compound into a microtiter plate (96-well format), the nutrient broth containing the fungal spores is added. The test plates are incubated at 24° C. and the inhibition of growth is measured photometrically 3 to 4 days after application.
The following compounds at 20 ppm in the applied formulation give at least 80% disease control in this test when compared to untreated control under the same conditions, which show extensive disease development.
`CON(Cc1ccc(-c2noc(C(F)(F)F)n2)s1)C(=O)n1ccnc1` [Compound 1.3, N-methoxy-N-[[5-[5-(trifluoromethyl)-1,2,4-oxadiazol-3-yl]-2-thienyl]methyl]imidazole-1-carboxamide] was tested, and the inhibition of growth at 20 ppm was no less than 80%. `COC(=O)N(Cc1ccc(-c2noc(C(F)(F)F)n2)s1)OC` [Compound 1.5, methyl N-methoxy-N-[[5-[5-(trifluoromethyl)-1,2,4-oxadiazol-3-yl]-2-thienyl]methyl]carbamate] was tested, and the inhibition of growth at 20 ppm was no less than 80%. `CON(Cc1ccc(-c2noc(C(F)(F)F)n2)s1)C(=O)c1ccccc1Cl` [Compound 1.20, 2-chloro-N-methoxy-N-[[5-[5-(trifluoromethyl)-1,2,4-oxadiazol-3-yl]-2-thienyl]methyl]benzamide] gave an inhibition of growth at 20 ppm of no less than 80%. In the case of `CON(Cc1ccc(-c2noc(C(F)(F)F)n2)s1)S(C)(=O)=O` [Compound 1.31, N-methoxy-N-[[5-[5-(trifluoromethyl)-1,2,4-oxadiazol-3-yl]-2-thienyl]methyl]methanesulfonamide], the inhibition of growth at 20 ppm is reported as no less than 80%. Work on `CON(Cc1ccc(-c2noc(C(F)(F)F)n2)s1)S(=O)(=O)N1CCCC1` [Compound 1.36, N-methoxy-N-[[5-[5-(trifluoromethyl)-1,2,4-oxadiazol-3-yl]-2-thienyl]methyl]pyrrolidine-1-sulfonamide] yielded an inhibition of growth at 20 ppm of no less than 80%. In the case of `C=CCS(=O)(=O)N(Cc1ccc(-c2noc(C(F)(F)F)n2)s1)OC` [Compound 1.38, N-methoxy-N-[[5-[5-(trifluoromethyl)-1,2,4-oxadiazol-3-yl]-2-thienyl]methyl]prop-2-ene-1-sulfonamide], the inhibition of growth at 20 ppm is reported as no less than 80%. `COC(=O)CCS(=O)(=O)N(Cc1ccc(-c2noc(C(F)(F)F)n2)s1)OC` [Compound 1.39, methyl 3-[methoxy-[[5-[5-(trifluoromethyl)-1,2,4-oxadiazol-3-yl]-2-thienyl]methyl]sulfamoyl]propanoate] gave an inhibition of growth at 20 ppm of no less than 80%. `COCCS(=O)(=O)N(Cc1ccc(-c2noc(C(F)(F)F)n2)s1)OC` [Compound 1.40, N,2-dimethoxy-N-[[5-[5-(trifluoromethyl)-1,2,4-oxadiazol-3-yl]-2-thienyl]methyl]ethanesulfonamide] showed an inhibition of growth at 20 ppm of no less than 80%. For `CCOC(=O)N(Cc1ccc(-c2noc(C(F)(F)F)n2)s1)C(C)C` [Compound 4.12, ethyl N-isopropyl-N-[[5-[5-(trifluoromethyl)-1,2,4-oxadiazol-3-yl]-2-thienyl]methyl]carbamate], the inhibition of growth at 20 ppm was no less than 80%. For `CC(C)C(=O)N(Cc1ccc(-c2noc(C(F)(F)F)n2)s1)OCC(F)F` [Compound 4.20, N-(2,2-difluoroethoxy)-2-methyl-N-[[5-[5-(trifluoromethyl)-1,2,4-oxadiazol-3-yl]-2-thienyl]methyl]propanamide], the inhibition of growth at 20 ppm was no less than 80%. Work on `COC(C)C(=O)N(Cc1ccc(-c2noc(C(F)(F)F)n2)s1)OCC(F)F` (stereo not drawn) [Compound 4.21, N-(2,2-difluoroethoxy)-2-methoxy-N-[[5-[5-(trifluoromethyl)-1,2,4-oxadiazol-3-yl]-2-thienyl]methyl]propanamide] yielded an inhibition of growth at 20 ppm of no less than 80%. `CCN(Cc1ccc(-c2noc(C(F)(F)F)n2)s1)C(=O)c1ccccc1Cl` [Compound 5.8, 2-chloro-N-ethyl-N-[[5-[5-(trifluoromethyl)-1,2,4-oxadiazol-3-yl]-2-thienyl]methyl]benzamide] showed an inhibition of growth at 20 ppm of no less than 80%. `CC(C)N(Cc1ccc(-c2noc(C(F)(F)F)n2)s1)C(=O)CC1CC1` [Compound 5.27, 2-cyclopropyl-N-isopropyl-N-[[5-[5-(trifluoromethyl)-1,2,4-oxadiazol-3-yl]-2-thienyl]methyl]acetamide] was tested, and the inhibition of growth at 20 ppm was no less than 80%. Work on `CC(C)N(Cc1ccc(-c2noc(C(F)(F)F)n2)s1)C(=O)C1(C)CC1` [Compound 5.30, N-isopropyl-1-methyl-N-[[5-[5-(trifluoromethyl)-1,2,4-oxadiazol-3-yl]-2-thienyl]methyl]cyclopropanecarboxamide] yielded an inhibition of growth at 20 ppm of no less than 80%. For `CC1CC1C(=O)N(Cc1ccc(-c2noc(C(F)(F)F)n2)s1)C(C)C` (stereo not drawn) [Compound 5.34, N-isopropyl-2-methyl-N-[[5-[5-(trifluoromethyl)-1,2,4-oxadiazol-3-yl]-2-thienyl]methyl]cyclopropanecarboxamide], the inhibition of growth at 20 ppm was no less than 80%. In the case of `O=C(c1ccccc1Cl)N(Cc1ccc(-c2noc(C(F)(F)F)n2)s1)C1CC1` [Compound 5.35, 2-chloro-N-cyclopropyl-N-[[5-[5-(trifluoromethyl)-1,2,4-oxadiazol-3-yl]-2-thienyl]methyl]benzamide], the inhibition of growth at 20 ppm is reported as no less than 80%. `O=C(c1ccccc1Cl)N(Cc1ccc(-c2noc(C(F)(F)F)n2)s1)OCC(F)F` [Compound 5.44, 2-chloro-N-(2,2-difluoroethoxy)-N-[[5-(5-(trifluoromethyl)-1,2,4-oxadiazol-3-yl]-2-thienyl]methyl]benzamide] showed an inhibition of growth at 20 ppm of no less than 80%. For `CC1(C(=O)N(Cc2ccc(-c3noc(C(F)(F)F)n3)s2)OCC(F)F)CC1` [Compound 5.48, N-(2,2-difluoroethoxy)-1-methyl-N-[[5-[5-(trifluoromethyl)-1,2,4-oxadiazol-3-yl]-2-thienyl]methyl]cyclopropanecarboxamide], the inhibition of growth at 20 ppm was no less than 80%. `CC(C)N(Cc1ccc(-c2noc(C(F)(F)F)n2)s1)C(=O)N1CCCO1` [Compound 5.58, N-isopropyl-N-[[5-[5-(trifluoromethyl)-1,2,4-oxadiazol-3-yl]-2-thienyl]methyl]isoxazolidine-2-carboxamide] showed an inhibition of growth at 20 ppm of no less than 80%. With `CC(C)N(Cc1ccc(-c2noc(C(F)(F)F)n2)s1)S(=O)(=O)N(C)C` [Compound 6.4, N-(dimethylsulfamoyl)-N-[[5-[5-(trifluoromethyl)-1,2,4-oxadiazol-3-yl]-2-thienyl]methyl]propan-2-amine] the inhibition of growth at 20 ppm was no less than 80%. `CCN(Cc1ccc(-c2noc(C(F)(F)F)n2)s1)S(=O)(=O)c1ccccc1` [Compound 6.15, N-ethyl-N-[[5-[5-(trifluoromethyl)-1,2,4-oxadiazol-3-yl]-2-thienyl]methyl]benzenesulfonamide] gave an inhibition of growth at 20 ppm of no less than 80%. `CC(C)S(=O)(=O)N(C)Cc1ccc(-c2noc(C(F)(F)F)n2)s1` [Compound 6.23, N-methyl-N-[[5-[5-(trifluoromethyl)-1,2,4-oxadiazol-3-yl]-2-thienyl]methyl]propane-2-sulfonamide] showed an inhibition of growth at 20 ppm of no less than 80%. `CCCCS(=O)(=O)N(Cc1ccc(-c2noc(C(F)(F)F)n2)s1)C1CC1` [Compound 6.34, N-cyclopropyl-N-[[5-[5-(trifluoromethyl)-1,2,4-oxadiazol-3-yl]-2-thienyl]methyl]butane-1-sulfonamide] showed an inhibition of growth at 20 ppm of no less than 80%. `CCN(Cc1ccc(-c2noc(C(F)(F)F)n2)s1)C(=O)C(=O)C(C)(C)C` [Compound 6.41, N-ethyl-3,3-dimethyl-2-oxo-N-[[5-[5-(trifluoromethyl)-1,2,4-oxadiazol-3-yl]-2-thienyl]methyl]butanamide] showed an inhibition of growth at 20 ppm of no less than 80%. Compound `CN(C)C(=O)C(=O)N(Cc1ccc(-c2noc(C(F)(F)F)n2)s1)OCC(F)F` [Compound 6.65, N′-(2,2-difluoroethoxy)-N,N-dimethyl-N′-[[5-[5-(trifluoromethyl)-1,2,4-oxadiazol-3-yl]-2-thienyl]methyl]oxamide] has an inhibition of growth at 20 ppm of no less than 80%.
